# Where two headings read alike, the source gives them in different places.
# How the values were obtained:
# Type in all cases: biochemical
# p110α/p85α = p110α/p85α (Homo sapiens (Human), UniProt P42336); experiment: PI3K α inhibition assay (TLC lipid kinase or HTRF)
# Method: (§1) Class I PI3-Ks can be either purchased (p110α/p85α, p110β/p85α, p110δ/p85α from Upstate, and p110γ from Sigma) or expressed as previously described (Knight et al., 2004). IC50 values are measured using either a standard TLC assay for lipid kinase activity (described below) or a high-throughput membrane capture assay. Kinase reactions are performed by preparing a reaction mixture containing kinase, inhibitor (2% DMSO final concentration), buffer (25 mM HEPES, pH 7.4, 10 mM MgCl2), and freshly sonicated phosphatidylinositol (100 μg/ml). Reactions are initiated by the addition of ATP containing 10 μCi of γ-32P-ATP to a final concentration 10 or 100 μM and allowed to proceed for 5 minutes at room temperature. For TLC analysis, reactions are then terminated by the addition of […] 1N HCl followed by 160 μl CHCl3:MeOH (1:1). The biphasic mixture is vortexed, briefly centrifuged, and the organic phase is transferred to a new tube using a gel loading pipette tip precoated with CHCl3. This extract is spotted on TLC plates and developed for 3-4 hours in a 65:35 solution of n-propanol:1M acetic acid. The TLC plates are then dried, exposed to a phosphorimager screen (Storm, Amersham), and quantitated. For each compound, kinase activity is measured at 10-12 inhibitor concentrations representing two-fold dilutions from the highest concentration tested (typically, 200 μM).
# (§2) Other commercial kits or systems for assaying PI3-K activities are available. The commercially available kits or systems can be used to screen for inhibitors and/or agonists of PI3-Ks including but not limited to PI 3-Kinase α, β, δ, and γ. Anr exemplary system is PI3-Kinase (human) HTRF™ Assay from Upstate. […] Briefly, the assay is a time resolved FRET assay that indirectly measures PIP3 product formed by the activity of a PI3-K. The kinase reaction is performed in a microtitre plate (e.g., a 384 well microtitre plate). The total reaction volume is approximately 20 ul per well. In the first step, each well receives 2 ul of test compound in 20% dimethylsulphoxide resulting in a 2% DMSO final concentration. Next, approximately 14.5 ul of a kinase/PIP2 mixture (diluted in 1× reaction buffer) is added per well for a final concentration of 0.25-0.3 ug/ml kinase and 10 uM PIP2. The plate is sealed and incubated for 15 minutes at room temperature. To start the reaction, 3.5 ul of ATP (diluted in 1× reaction buffer) is added per well for a final concentration of 10 uM ATP. The plate is sealed and incubated for 1 hour at room temperature. The reaction is stopped by adding 5 ul of Stop Solution per well and then 5 ul of Detection Mix is added per well. The plate is sealed, incubated for 1 hour at room temperature, and then read on an appropriate plate reader. Data is analyzed and IC50s are generated using GraphPad Prism 5.
# p110γ = p110γ (Homo sapiens (Human), UniProt P48736); experiment: PI3K γ inhibition assay (TLC lipid kinase or HTRF)
# Sequence of p110γ (P48736 whole entry): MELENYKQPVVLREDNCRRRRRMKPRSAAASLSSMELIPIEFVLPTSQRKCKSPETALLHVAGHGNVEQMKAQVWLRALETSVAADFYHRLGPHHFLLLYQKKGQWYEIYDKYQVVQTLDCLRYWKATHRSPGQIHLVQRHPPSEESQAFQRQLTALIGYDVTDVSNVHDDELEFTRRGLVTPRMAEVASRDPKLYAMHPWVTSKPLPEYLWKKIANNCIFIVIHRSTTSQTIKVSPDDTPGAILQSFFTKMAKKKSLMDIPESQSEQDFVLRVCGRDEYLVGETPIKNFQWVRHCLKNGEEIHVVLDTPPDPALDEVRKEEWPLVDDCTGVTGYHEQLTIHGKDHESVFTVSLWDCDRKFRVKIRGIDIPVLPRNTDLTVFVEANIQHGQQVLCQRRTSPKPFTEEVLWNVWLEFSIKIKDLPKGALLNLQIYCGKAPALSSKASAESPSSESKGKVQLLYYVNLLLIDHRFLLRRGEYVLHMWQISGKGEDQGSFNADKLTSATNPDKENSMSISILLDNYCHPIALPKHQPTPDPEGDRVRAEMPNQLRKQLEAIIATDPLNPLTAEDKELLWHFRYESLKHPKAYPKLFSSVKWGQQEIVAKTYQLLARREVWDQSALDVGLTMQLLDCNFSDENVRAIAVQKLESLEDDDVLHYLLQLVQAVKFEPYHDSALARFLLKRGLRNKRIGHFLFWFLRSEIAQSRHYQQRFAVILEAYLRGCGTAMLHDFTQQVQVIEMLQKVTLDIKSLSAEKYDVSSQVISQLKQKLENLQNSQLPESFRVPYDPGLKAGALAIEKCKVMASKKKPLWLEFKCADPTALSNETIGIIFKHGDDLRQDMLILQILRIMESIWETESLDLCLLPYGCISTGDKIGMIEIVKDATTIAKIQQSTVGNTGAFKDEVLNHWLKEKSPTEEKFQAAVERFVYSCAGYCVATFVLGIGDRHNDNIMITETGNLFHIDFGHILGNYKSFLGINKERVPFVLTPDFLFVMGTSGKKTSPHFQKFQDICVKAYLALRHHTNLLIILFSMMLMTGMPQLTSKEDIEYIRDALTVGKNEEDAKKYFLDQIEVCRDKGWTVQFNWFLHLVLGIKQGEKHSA
# Method: as §1, §2
# p110β/p85α = p110β/p85α (Homo sapiens, UniProt P42338); experiment: PI3K β inhibition assay (TLC lipid kinase or HTRF)
# Sequence of p110β/p85α (P42338 whole entry, looked up): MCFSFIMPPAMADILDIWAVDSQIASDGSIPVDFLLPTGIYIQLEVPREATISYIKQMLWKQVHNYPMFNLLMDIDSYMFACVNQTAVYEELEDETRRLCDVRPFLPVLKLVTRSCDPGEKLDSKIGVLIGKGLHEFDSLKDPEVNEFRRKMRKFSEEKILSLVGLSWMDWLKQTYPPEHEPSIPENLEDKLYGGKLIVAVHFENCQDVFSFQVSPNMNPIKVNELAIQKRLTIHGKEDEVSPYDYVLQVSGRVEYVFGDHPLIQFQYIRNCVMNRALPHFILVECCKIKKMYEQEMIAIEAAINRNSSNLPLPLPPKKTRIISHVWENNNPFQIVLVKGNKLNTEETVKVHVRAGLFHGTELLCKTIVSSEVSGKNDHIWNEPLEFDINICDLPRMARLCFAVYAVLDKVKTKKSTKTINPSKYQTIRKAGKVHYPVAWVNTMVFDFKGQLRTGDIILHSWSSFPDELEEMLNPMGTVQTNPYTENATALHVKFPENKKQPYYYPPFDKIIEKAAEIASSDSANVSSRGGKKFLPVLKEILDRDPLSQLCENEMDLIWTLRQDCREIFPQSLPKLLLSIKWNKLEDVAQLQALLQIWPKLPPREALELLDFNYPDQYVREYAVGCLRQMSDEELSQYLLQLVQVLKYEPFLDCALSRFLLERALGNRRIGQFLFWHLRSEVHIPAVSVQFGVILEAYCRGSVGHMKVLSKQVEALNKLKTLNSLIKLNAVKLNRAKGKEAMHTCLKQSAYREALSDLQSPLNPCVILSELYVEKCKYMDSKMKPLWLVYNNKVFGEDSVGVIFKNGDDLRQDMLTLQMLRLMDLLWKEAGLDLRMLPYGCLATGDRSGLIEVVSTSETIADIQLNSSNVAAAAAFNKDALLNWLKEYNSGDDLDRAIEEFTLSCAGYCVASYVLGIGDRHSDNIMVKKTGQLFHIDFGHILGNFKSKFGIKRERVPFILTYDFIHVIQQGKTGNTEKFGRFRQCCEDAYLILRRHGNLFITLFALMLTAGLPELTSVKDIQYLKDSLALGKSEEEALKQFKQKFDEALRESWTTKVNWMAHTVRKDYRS
# Method: as §1, §2
# p110δ/p85α = p110δ/p85α (Homo sapiens (Human), UniProt O00329); experiment: PI3K δ inhibition assay (TLC lipid kinase or HTRF)
# Sequence of p110δ/p85α (O00329 whole entry): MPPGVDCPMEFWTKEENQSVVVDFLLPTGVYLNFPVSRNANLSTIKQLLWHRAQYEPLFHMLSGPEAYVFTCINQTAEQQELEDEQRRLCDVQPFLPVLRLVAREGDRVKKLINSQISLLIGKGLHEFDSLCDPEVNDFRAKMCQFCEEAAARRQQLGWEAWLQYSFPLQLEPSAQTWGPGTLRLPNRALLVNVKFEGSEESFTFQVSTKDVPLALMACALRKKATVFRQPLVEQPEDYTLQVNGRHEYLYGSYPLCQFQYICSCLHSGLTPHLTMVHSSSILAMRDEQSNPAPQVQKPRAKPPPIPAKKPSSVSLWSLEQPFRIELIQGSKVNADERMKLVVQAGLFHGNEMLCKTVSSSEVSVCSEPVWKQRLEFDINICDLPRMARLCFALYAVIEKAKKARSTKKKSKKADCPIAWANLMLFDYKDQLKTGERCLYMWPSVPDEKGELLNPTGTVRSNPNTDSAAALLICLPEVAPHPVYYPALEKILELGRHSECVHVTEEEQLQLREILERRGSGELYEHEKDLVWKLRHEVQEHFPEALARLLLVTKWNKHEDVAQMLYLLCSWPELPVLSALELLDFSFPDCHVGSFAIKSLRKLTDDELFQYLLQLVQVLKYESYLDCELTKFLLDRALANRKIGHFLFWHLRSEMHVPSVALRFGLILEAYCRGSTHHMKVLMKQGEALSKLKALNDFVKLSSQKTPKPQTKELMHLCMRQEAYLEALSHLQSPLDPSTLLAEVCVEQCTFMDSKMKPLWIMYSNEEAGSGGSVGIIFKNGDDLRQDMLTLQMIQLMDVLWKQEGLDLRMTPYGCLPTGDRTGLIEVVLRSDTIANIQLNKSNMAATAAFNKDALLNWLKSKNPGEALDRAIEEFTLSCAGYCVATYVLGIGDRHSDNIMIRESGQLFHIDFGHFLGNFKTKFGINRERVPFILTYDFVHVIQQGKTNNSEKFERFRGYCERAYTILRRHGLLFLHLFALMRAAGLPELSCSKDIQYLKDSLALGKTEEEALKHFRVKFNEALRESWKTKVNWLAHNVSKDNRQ
# Sequence of p110δ/p85α (P27986 whole entry partner): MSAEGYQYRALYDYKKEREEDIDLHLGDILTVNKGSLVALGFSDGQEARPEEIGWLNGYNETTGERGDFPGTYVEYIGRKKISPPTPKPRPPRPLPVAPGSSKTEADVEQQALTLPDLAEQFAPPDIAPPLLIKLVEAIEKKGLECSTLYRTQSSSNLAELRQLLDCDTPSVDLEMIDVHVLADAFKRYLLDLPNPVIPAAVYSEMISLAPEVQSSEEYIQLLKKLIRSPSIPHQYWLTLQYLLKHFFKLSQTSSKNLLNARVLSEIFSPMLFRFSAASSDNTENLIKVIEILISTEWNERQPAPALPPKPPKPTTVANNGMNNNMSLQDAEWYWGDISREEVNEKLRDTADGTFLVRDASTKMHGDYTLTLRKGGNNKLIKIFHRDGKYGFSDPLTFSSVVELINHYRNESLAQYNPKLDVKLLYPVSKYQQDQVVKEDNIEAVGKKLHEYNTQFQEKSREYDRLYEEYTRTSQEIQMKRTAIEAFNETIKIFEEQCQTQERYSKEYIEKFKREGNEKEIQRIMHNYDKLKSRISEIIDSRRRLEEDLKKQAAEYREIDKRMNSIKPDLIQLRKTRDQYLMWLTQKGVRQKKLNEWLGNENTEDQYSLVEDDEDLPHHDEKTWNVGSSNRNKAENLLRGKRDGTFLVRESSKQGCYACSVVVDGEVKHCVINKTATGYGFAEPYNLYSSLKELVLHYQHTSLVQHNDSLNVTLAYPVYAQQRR
# Method: as §1, §2
# Sequence of p110α/p85α (P42336 whole entry): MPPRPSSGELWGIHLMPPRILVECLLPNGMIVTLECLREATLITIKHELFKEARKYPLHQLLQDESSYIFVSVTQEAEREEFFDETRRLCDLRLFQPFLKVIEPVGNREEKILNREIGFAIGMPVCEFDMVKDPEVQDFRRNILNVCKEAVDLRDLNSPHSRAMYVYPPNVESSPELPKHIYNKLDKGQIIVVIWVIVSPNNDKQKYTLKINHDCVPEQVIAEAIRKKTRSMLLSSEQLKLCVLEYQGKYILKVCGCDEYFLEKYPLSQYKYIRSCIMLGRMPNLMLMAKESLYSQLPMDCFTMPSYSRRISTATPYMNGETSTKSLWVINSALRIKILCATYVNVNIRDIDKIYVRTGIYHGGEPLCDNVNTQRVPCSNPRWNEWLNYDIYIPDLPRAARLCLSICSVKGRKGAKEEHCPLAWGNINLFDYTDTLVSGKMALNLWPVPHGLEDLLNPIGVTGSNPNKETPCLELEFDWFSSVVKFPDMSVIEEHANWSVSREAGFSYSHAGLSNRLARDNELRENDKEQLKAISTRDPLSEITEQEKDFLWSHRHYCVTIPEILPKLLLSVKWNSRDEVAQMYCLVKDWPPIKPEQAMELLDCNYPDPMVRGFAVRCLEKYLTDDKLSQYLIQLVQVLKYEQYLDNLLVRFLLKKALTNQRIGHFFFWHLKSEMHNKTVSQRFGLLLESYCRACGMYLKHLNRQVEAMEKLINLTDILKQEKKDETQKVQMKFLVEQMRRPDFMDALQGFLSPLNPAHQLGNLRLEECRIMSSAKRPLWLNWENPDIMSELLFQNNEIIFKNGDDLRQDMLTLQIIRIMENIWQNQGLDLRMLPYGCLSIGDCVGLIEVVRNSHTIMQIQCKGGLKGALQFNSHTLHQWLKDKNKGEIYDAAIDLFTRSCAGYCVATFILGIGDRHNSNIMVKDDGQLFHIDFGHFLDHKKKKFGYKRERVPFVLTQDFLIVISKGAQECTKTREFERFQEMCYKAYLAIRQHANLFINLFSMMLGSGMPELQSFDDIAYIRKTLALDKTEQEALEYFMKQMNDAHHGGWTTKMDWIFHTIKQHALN
# Sequence of p110α/p85α (P27986 whole entry partner): as the sequence (P27986 whole entry partner) above
SMILES,IC50 (p110α/p85α) [nM],IC50 (p110γ) [nM],IC50 (p110β/p85α; read-out: PI3K β IC50) [nM],IC50 (p110δ/p85α) [nM],IC50 (p110β/p85α; PI3K β IC50) [nM]
CCc1nc2ccccc2cc1Cn1nc(-c2ccc3nc(NC(C)=O)sc3c2)c2c(N)ncnc21 [Compound 98],> 1000,< 100,> 1000,< 100,
CCc1nc2ccccc2cc1Cn1nc(-c2ccc3nc(N)sc3c2)c2c(N)ncnc21 [Compound 99],100 to 1000,< 100,100 to 1000,< 100,
Cc1ccccc1-c1nc2ccccc2nc1Cn1nc(-c2cccc(O)c2)c2c(N)ncnc21 [Compound 108],> 1000,> 1000,> 1000,100 to 1000,
Nc1ncnc2c1c(-c1cccc(O)c1)nn2Cc1cc2ccccc2[nH]c1=O [Compound 109],> 1000,> 1000,> 1000,100 to 1000,
CC(C)n1c(=O)c(Cn2nc(-c3cccc(O)c3)c3c(N)ncnc32)cc2ccccc21 [Compound 110],> 1000,> 1000,> 1000,100 to 1000,
Cn1c(=O)c(Cn2nc(-c3cccc(O)c3)c3c(N)ncnc32)cc2ccccc21 [Compound 111],> 1000,> 1000,> 1000,100 to 1000,
Cn1c(=O)c(Cn2nc(-c3cc(O)cc(F)c3)c3c(N)ncnc32)cc2ccccc21 [Compound 112],> 1000,100 to 1000,> 1000,< 100,
CCn1c(=O)c(Cn2nc(-c3cc(O)cc(F)c3)c3c(N)ncnc32)cc2ccccc21 [Compound 113],> 1000,> 1000,> 1000,< 100,
NC(=O)c1nn(Cc2cc3ccccc3nc2-c2ccccc2F)c2ncnc(N)c12 [Compound 191],> 1000,> 1000,,100 to 1000,> 1000

# Further lines, with some results ahead:
IC50 (p110α/p85α) [nM],IC50 (p110γ) [nM],IC50 (p110β/p85α; read-out: PI3K β IC50) [nM],IC50 (p110δ/p85α) [nM],SMILES,IC50 (p110β/p85α; PI3K β IC50) [nM]
> 1000,> 1000,> 1000,< 100,Nc1ncnc2c1c(-c1cc(O)cc(F)c1)nn2Cc1cc2ccccc2[nH]c1=O [Compound 114],
> 1000,> 1000,> 1000,100 to 1000,CCn1c(=O)c(Cn2nc(-c3cccc(O)c3)c3c(N)ncnc32)cc2ccccc21 [Compound 115],
> 1000,> 1000,> 1000,100 to 1000,CCn1c(=O)c(Cn2nc(-c3cccc(O)c3)c3c(N)ncnc32)nc2ccccc21 [Compound 116],
> 1000,> 1000,> 1000,< 100,CCn1c(=O)c(Cn2nc(-c3cc(O)cc(F)c3)c3c(N)ncnc32)nc2ccccc21 [Compound 117],
> 1000,100 to 1000,> 1000,< 100,CCn1c(=O)c(Cn2nc(-c3ccc4nc(NC(C)=O)sc4c3)c3c(N)ncnc32)nc2ccccc21 [Compound 118],
100 to 1000,< 100,> 1000,< 100,CCn1c(=O)c(Cn2nc(-c3ccc4nc(N)sc4c3)c3c(N)ncnc32)nc2ccccc21 [Compound 119],
> 1000,100 to 1000,> 1000,< 100,CC(=O)Nc1nc2ccc(-c3nn(Cc4cc5ccccc5nc4-n4ccnc4C)c4ncnc(N)c34)cc2s1 [Compound 170],
> 1000,> 1000,> 1000,> 1000,C=Cc1nn(Cc2cc3ccccc3nc2-c2ccccc2F)c2ncnc(N)c12 [Compound 190],
> 1000,> 1000,> 1000,> 1000,Nc1ncnc2c1c(/C=C1/CCNC1=O)nn2Cc1cc2ccccc2nc1-c1ccccc1F [Compound 193],
> 1000,> 1000,> 1000,100 to 1000,NC(=O)/C=C/c1nn(Cc2cc3ccccc3nc2-c2ccccc2F)c2ncnc(N)c12 [Compound 194],
